Test results from publication PMC10175918 (Communications Biology, 2023).
Like-named read-outs stand apart in the source and are kept apart here.

Experiments:
Assay in all cases: TGFα-shedding assay-based GPCR screening with chimeric Gα subunit proteins
Format in all cases: cell-based
348 GPCRs [1] = molecular target: T1, 348 GPCRs (Homo sapiens, UniProt Q13585)
T1 construct: expressed in transfected cells; host or cells: HEK293A

348 GPCRs [2] = molecular target: T2, 348 GPCRs (Homo sapiens, UniProt P30518)
T2 construct: expressed in transfected cells; host or cells: HEK293A
T2 sequence (P30518 whole entry): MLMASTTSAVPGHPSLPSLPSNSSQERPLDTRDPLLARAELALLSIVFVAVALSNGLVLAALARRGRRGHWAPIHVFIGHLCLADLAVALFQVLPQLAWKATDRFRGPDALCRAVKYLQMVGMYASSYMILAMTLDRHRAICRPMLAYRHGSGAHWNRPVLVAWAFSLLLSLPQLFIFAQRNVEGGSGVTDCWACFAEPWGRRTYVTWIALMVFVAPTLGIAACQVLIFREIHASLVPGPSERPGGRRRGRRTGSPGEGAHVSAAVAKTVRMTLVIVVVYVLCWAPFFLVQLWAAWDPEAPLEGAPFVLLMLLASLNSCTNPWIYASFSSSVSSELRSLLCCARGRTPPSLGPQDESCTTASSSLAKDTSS

348 GPCRs [3] = molecular target: 348 GPCRs (Homo sapiens, UniProt P46093)
Chain of 348 GPCRs (Homo sapiens, UniProt P46093) (P46093 whole entry): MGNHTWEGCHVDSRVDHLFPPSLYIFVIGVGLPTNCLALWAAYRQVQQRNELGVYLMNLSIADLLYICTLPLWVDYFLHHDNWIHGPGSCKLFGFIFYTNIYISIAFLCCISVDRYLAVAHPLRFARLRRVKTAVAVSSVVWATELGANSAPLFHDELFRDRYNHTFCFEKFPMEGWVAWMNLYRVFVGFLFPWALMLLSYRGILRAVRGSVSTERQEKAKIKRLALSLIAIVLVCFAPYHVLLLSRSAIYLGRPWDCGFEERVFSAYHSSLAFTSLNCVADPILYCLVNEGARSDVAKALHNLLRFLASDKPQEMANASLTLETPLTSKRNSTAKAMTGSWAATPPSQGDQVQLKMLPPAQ

348 GPCRs [4] = molecular target: T3, 348 GPCRs (Homo sapiens, UniProt Q8IZ08); conditions: 10µM, Favipiravir 100μM
T3 construct: expressed in transfected cells; host or cells: HEK293A
T3 sequence (Q8IZ08 whole entry): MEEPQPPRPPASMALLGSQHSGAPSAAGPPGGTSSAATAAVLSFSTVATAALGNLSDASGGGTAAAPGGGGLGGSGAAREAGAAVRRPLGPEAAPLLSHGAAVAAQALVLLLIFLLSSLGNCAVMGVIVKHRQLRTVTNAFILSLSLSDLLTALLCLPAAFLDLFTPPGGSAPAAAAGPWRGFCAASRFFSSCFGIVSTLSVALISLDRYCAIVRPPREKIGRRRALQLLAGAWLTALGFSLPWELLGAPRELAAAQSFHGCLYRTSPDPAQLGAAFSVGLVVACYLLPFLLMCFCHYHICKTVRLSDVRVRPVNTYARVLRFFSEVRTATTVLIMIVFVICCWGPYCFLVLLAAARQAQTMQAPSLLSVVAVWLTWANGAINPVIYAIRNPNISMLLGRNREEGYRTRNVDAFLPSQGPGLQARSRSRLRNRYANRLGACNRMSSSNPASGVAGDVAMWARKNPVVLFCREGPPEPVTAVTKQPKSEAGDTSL

348 GPCRs [5] = molecular target: T4, 348 GPCRs (Homo sapiens, UniProt P25090); conditions: 10µM, Favipiravir 100μM
T4 sequence (P25090 1-351): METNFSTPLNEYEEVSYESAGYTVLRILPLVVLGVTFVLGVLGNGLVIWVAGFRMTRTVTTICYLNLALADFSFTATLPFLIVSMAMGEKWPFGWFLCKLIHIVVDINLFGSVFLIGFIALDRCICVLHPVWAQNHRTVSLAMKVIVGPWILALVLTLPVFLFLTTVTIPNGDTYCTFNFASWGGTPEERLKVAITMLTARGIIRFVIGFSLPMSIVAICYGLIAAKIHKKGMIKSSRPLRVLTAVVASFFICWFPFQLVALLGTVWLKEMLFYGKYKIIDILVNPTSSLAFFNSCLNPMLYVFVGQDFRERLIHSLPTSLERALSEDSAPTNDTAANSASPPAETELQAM

348 GPCRs [6] = molecular target: T5, 348 GPCRs (Homo sapiens, UniProt Q15761); conditions: 10µM, Favipiravir 100μM
T5 construct: expressed in transfected cells; host or cells: HEK293A
T5 sequence (Q15761 1-445): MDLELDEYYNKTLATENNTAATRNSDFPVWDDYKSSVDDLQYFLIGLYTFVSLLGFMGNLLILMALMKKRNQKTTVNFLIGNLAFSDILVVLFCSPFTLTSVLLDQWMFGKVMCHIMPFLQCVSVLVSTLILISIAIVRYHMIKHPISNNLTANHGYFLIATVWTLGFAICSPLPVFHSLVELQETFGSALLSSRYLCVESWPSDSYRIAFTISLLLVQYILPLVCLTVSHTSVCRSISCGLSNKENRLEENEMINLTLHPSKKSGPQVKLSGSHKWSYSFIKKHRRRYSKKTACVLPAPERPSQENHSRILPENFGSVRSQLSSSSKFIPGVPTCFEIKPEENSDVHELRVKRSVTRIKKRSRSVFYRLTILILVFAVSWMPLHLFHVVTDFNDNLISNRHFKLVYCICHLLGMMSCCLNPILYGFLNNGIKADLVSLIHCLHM

348 GPCRs [7] = molecular target: T6, 348 GPCRs (Homo sapiens, UniProt Q9HBX9); conditions: RXFP1 (relaxin/insulin-like family peptide receptor 1); 10µM, Favipiravir 100μM
T6 construct: expressed in transfected cells; host or cells: HEK293A
T6 sequence (Q9HBX9 1-757): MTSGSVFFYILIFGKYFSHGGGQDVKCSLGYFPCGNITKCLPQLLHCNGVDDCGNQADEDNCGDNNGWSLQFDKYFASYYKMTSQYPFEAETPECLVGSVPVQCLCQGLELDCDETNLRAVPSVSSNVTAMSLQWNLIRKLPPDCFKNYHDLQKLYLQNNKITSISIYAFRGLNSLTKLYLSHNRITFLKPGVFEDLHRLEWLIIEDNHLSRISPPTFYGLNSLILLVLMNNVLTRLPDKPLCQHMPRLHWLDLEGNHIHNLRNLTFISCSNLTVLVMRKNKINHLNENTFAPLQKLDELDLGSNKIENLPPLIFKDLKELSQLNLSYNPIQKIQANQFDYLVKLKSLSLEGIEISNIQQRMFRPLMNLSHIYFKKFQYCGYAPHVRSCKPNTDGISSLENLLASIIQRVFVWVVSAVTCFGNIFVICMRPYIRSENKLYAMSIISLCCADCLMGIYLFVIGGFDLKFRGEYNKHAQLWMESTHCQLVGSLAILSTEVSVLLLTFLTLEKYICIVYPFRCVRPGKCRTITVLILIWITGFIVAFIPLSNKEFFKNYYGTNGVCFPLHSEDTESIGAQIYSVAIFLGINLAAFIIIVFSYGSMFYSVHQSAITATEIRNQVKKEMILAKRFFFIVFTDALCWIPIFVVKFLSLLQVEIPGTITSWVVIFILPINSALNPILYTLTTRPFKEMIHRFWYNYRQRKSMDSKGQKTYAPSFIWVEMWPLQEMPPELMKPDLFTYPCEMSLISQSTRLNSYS

348 GPCRs [8] = molecular target: T7, 348 GPCRs (Homo sapiens, UniProt Q9Y3P9); conditions: 10µM, Favipiravir 100μM
T7 construct: expressed in transfected cells; host or cells: HEK293A
T7 sequence (Q9Y3P9 whole entry): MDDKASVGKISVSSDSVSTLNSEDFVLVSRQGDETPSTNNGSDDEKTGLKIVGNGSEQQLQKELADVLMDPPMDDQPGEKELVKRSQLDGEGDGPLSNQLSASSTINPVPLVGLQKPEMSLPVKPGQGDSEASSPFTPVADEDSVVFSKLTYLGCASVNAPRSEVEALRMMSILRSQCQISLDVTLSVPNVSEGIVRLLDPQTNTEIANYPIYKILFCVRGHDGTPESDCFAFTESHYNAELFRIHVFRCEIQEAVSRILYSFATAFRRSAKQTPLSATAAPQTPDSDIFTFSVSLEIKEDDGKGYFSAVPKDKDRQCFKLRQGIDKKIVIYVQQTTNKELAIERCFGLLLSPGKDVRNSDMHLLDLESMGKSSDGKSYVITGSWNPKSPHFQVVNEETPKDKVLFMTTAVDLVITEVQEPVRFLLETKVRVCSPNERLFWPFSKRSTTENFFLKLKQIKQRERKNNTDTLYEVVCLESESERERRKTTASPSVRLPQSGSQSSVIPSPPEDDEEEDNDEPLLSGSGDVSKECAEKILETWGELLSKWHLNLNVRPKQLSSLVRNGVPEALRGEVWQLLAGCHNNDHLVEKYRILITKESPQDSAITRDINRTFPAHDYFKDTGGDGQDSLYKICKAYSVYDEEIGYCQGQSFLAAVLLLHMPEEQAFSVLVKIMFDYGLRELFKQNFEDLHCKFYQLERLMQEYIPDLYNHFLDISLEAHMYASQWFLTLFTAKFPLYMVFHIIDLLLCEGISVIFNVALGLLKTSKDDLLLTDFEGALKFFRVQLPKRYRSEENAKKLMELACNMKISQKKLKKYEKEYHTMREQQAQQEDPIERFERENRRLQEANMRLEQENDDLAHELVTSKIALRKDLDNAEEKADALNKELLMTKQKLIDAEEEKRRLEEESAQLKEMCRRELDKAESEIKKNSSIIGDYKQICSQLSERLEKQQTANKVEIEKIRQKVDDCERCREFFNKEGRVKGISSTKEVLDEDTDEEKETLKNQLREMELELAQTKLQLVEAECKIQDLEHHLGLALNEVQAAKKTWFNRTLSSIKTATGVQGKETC

348 GPCRs [9] = molecular target: T8, 348 GPCRs (Homo sapiens, UniProt Q8NFJ5); conditions: 10µM, Favipiravir 100μM
T8 construct: expressed in transfected cells; host or cells: HEK293A
T8 sequence (Q8NFJ5 whole entry): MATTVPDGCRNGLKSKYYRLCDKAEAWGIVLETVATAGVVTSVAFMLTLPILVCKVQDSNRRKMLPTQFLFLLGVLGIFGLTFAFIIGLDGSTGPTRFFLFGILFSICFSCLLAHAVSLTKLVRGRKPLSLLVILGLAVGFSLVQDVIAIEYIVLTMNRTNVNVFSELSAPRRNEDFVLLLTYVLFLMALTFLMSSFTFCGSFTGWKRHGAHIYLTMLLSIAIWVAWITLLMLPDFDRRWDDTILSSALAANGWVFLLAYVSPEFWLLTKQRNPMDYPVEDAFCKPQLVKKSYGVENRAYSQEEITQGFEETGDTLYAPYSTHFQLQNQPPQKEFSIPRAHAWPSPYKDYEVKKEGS

348 GPCRs [10] = molecular target: 348 GPCRs (Homo sapiens, UniProt P35462); conditions: 10µM, Favipiravir 100μM
Chain of 348 GPCRs (Homo sapiens, UniProt P35462) (P35462 whole entry): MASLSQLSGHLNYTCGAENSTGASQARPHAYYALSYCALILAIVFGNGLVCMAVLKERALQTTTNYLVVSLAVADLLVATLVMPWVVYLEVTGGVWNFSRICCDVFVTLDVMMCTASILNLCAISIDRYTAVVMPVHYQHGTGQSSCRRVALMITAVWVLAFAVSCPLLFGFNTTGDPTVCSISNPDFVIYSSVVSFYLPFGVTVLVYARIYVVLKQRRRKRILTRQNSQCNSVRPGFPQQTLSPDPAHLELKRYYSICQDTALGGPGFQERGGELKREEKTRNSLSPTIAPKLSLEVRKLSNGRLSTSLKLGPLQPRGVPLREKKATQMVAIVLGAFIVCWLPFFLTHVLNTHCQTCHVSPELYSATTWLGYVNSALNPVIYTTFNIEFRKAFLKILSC

[11] = GPCR GPR50 (G Protein-Coupled Receptor 50), read-out: % GPCR activation compared to TPA
[12] = GPCR V2 (arginine vasopressin receptor 2), read-out: % GPCR activation compared to TPA
[13] = GPCR GPR4 (G Protein-Coupled Receptor 4), read-out: % GPCR activation compared to TPA
[14] = GPR135 (G Protein-Coupled Receptor 135), read-out: % GPCR activation compared to TPA
[15] = FPR2 (formyl peptide receptor 2), read-out: % GPCR activation compared to TPA
[16] = NPY5R (neuropeptide Y Receptor Y5), read-out: % GPCR activation compared to TPA
[17] = RABGAP1 (Rab GTPase-activating protein 1), read-out: % GPCR activation compared to TPA
[18] = GPRC5A (G protein-coupled receptor class C group 5 member A), read-out: % GPCR activation compared to TPA
[19] = D3 (dopamine receptor D3), read-out: % GPCR activation compared to TPA
[20] = read-out: % GPCR activation compared to TPA, GPCR GPR50 (G Protein-Coupled Receptor 50)
[21] = read-out: % GPCR activation compared to TPA, GPCR V2 (arginine vasopressin receptor 2)
[22] = read-out: % GPCR activation compared to TPA, GPCR GPR4 (G Protein-Coupled Receptor 4)
[23] = read-out: % GPCR activation compared to TPA, GPR135 (G Protein-Coupled Receptor 135)
[24] = read-out: % GPCR activation compared to TPA, FPR2 (formyl peptide receptor 2)
[25] = read-out: % GPCR activation compared to TPA, NPY5R (neuropeptide Y Receptor Y5)
[26] = read-out: % GPCR activation compared to TPA, RABGAP1 (Rab GTPase-activating protein 1)
[27] = read-out: % GPCR activation compared to TPA, GPRC5A (G protein-coupled receptor class C group 5 member A)
[28] = read-out: % GPCR activation compared to TPA, D3 (dopamine receptor D3)

T1 sequence (Q13585 whole entry): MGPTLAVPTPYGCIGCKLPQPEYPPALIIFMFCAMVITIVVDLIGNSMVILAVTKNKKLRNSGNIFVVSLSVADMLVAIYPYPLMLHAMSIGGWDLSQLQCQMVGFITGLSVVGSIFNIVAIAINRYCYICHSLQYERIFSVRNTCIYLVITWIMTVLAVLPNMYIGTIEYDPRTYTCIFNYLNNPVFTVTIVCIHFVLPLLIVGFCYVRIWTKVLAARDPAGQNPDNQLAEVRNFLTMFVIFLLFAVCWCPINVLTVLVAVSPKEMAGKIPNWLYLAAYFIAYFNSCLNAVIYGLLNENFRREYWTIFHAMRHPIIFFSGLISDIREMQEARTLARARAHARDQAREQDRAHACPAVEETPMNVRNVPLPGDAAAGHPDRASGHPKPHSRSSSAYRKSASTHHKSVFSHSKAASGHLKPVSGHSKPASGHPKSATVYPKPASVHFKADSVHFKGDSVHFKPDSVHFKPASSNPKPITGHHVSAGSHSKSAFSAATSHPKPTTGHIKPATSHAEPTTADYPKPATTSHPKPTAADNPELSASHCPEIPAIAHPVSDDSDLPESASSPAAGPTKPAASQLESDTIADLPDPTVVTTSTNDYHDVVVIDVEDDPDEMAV

Compound | activation at 10 µM (348 GPCRs [1]; [11]) | activation at 10 µM (348 GPCRs [2]; [12]) | activation at 10 µM (348 GPCRs [3]; [13]) | activation at 100 µM (348 GPCRs [4]; [14]) | activation at 100 µM (348 GPCRs [5]; [15]) | activation at 100 µM (348 GPCRs [6]; [16]) | % GPCR activation compared to TPA (348 GPCRs [7]) | activation at 100 µM (348 GPCRs [8]; [17]) | activation at 100 µM (348 GPCRs [9]; [18]) | activation at 100 µM (348 GPCRs [10]; [19]) | activation at 10 µM (348 GPCRs [1]; [20]) | activation at 10 µM (348 GPCRs [2]; [21]) | activation at 10 µM (348 GPCRs [3]; [22]) | activation at 100 µM (348 GPCRs [4]; [23]) | activation at 100 µM (348 GPCRs [5]; [24]) | activation at 100 µM (348 GPCRs [6]; [25]) | activation at 100 µM (348 GPCRs [8]; [26]) | activation at 100 µM (348 GPCRs [9]; [27]) | activation at 100 µM (348 GPCRs [10]; [28]) | also measured
N#C[C@@]1(c2ccc3c(N)ncnn23)O[C@H](CO)[C@@H](O)[C@H]1O [GS441524] | -1.05% | -0.765% | -0.661% | -1.68% | -0.97% | 0.212% | -1.093% | -1.83% | 6.76% | 4.08% |  |  |  |  |  |  |  |  |  | 
CCC(CC)COC(=O)[C@H](C)N[P@](=O)(OC[C@H]1O[C@@](C#N)(c2ccc3c(N)ncnn23)[C@H](O)[C@@H]1O)Oc1ccccc1 [remdesivir] |  |  |  |  |  |  | -0.5639% |  |  |  | -1.37% | 1.36% | -1.37% | -2.35% | -0.745% | 0.934% | -0.577% | 9.99% | 7.67% | 
CC(C)OC(=O)[C@H](C)N[P@](=O)(OC[C@H]1O[C@@H](n2ccc(=O)[nH]c2=O)[C@](C)(F)[C@@H]1O)Oc1ccccc1 [sofosbuvir] |  |  |  |  |  |  | 0.4557% |  |  |  | -0.301% | -0.417% | 1.94% | -2.6% | -1.57% | -4.22% | -1.28% | -9.13% | -1.16% | 

Further lines, with some results ahead:

activation at 10 µM (348 GPCRs [1]; [11]) | activation at 10 µM (348 GPCRs [2]; [12]) | activation at 10 µM (348 GPCRs [3]; [13]) | activation at 100 µM (348 GPCRs [4]; [14]) | activation at 100 µM (348 GPCRs [5]; [15]) | activation at 100 µM (348 GPCRs [6]; [16]) | % GPCR activation compared to TPA (348 GPCRs [7]) | activation at 100 µM (348 GPCRs [8]; [17]) | activation at 100 µM (348 GPCRs [9]; [18]) | activation at 100 µM (348 GPCRs [10]; [19]) | Compound | activation at 10 µM (348 GPCRs [1]; [20]) | activation at 10 µM (348 GPCRs [2]; [21]) | activation at 10 µM (348 GPCRs [3]; [22]) | activation at 100 µM (348 GPCRs [4]; [23]) | activation at 100 µM (348 GPCRs [5]; [24]) | activation at 100 µM (348 GPCRs [6]; [25]) | activation at 100 µM (348 GPCRs [8]; [26]) | activation at 100 µM (348 GPCRs [9]; [27]) | activation at 100 µM (348 GPCRs [10]; [28]) | also measured
 |  |  | -0.994% | -3.31% | -1.82% | 0.2738% | -1.48% | 8.99% | 7.52% | NC(=O)c1nc(F)cnc1O [favipiravir, 6-fluoro-3-hydroxy-2-pyrazinecarboxamide] |  |  |  |  |  |  |  |  |  | activation at 100 µM (348 GPCRs [1]; GPCR GPR50 (G Protein-Coupled Receptor 50), 100μM, read-out: % GPCR activation compared to TPA): -0.692%; activation at 100 µM (348 GPCRs [2]; GPCR V2 (arginine vasopressin receptor 2), 100μM, read-out: % GPCR activation compared to TPA): 1.41%; activation at 100 µM (348 GPCRs [3]; GPCR GPR4 (G Protein-Coupled Receptor 4), 100μM, read-out: % GPCR activation compared to TPA): -3.16%
-1.45% | -0.988% | -3.97% | -1.53% | -1.5% | -5.02% | -0.9572% | -0.481% | -5.54% | 0.0207% | CC(C)C(=O)OC[C@H]1O[C@@H](n2ccc(NO)nc2=O)[C@H](O)[C@@H]1O [molnupiravir] |  |  |  |  |  |  |  |  |  | 
